# Values of other authors, collected in patent publication US20060062853A1 (Medical Research Institute, priority 2004, published 2006).
# Columns and labels:
# [1] = such as juices
# [2] = not given; remark: listed apart in the source
smiles,measurement,setting,value
"CN(CC(=O)O)C(=N)N [creatine, N-(aminoiminomethyl)-N-methylglycine]",creatine lost from the cell,70 kg male,approximately 2 grams per day
same,loss of creatine from skeletal muscle,skeletal muscle,about 3 % per day
same,stability in acidic solutions,[1],not stable
same,half-life in blood plasma,[2],1 to 1.5 h
